Target: T1, sweet taste receptor (T1R2, T1R3 endogenous) (Homo sapiens, UniProt Q7RTX0+Q8TE23)
T1 construct: endogenous in cells; host or cells: HuTu (ATCC HTB-40), H716 (ATCC CCL-251), HEK 293T (ATCC CRL-11268); some with prior UV treatment
T1 sequence (Q8TE23 20-839): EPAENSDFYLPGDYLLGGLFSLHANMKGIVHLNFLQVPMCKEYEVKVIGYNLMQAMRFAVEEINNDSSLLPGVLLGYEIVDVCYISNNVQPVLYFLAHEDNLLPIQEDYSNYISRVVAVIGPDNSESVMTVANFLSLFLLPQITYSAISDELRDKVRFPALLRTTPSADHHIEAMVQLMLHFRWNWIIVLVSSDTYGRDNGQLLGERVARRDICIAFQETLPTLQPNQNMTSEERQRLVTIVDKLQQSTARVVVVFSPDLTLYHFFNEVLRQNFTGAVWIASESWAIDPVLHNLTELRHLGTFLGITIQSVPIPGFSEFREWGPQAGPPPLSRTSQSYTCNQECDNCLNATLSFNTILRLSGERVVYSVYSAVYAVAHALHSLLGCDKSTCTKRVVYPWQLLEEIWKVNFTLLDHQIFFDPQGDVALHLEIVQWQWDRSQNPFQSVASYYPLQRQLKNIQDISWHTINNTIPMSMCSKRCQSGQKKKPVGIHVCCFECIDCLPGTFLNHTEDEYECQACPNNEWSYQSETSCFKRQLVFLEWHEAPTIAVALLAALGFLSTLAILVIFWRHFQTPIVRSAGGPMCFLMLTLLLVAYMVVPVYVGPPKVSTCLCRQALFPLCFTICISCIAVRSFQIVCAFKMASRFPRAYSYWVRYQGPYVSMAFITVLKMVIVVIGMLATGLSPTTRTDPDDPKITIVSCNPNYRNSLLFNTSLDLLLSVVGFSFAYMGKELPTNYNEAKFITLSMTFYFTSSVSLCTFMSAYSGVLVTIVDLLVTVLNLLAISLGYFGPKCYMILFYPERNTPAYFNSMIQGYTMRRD
T1 sequence (Q7RTX0 21-852): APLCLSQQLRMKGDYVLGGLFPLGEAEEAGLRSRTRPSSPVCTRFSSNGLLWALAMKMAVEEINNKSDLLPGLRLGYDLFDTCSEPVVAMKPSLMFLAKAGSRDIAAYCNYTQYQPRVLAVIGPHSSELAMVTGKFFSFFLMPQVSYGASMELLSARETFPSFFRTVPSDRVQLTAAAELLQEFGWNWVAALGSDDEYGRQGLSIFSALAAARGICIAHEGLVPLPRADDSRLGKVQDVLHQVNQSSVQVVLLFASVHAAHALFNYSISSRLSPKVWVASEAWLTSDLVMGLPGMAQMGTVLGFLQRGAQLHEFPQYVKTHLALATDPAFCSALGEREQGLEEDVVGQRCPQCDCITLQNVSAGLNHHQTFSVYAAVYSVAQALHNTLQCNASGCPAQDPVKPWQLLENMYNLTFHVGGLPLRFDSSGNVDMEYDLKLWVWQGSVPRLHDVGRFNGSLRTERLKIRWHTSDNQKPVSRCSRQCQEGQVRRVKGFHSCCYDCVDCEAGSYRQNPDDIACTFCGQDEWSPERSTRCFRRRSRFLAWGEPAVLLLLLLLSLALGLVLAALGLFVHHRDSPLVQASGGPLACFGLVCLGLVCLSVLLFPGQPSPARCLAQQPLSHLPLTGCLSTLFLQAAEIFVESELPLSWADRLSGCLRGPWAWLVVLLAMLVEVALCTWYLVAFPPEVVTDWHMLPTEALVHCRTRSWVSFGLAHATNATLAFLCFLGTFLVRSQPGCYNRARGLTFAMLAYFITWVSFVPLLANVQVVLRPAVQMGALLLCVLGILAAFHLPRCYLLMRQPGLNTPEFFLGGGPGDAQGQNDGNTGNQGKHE
Assay: Calcium flux assay, cells endogenously expressing at least one sweet receptor subunit
Assay type: cell-based
Settings: 15 mM fructose
Method: Populations of cells each resulting from the expansion of single isolated cells then were characterized for their ability to respond to a sweet ligand using functional cell-based assays. 15 mM fructose was used in these experiments. Depending on the cell type, different conditions were used as described below.
Forty-eight hours prior to assay, cells were seeded in growth media (L15 media (Sigma #L5520) supplemented with 10% serum (Sigma #SAC1203C), 4 mM L-Glutamine (Sigma G7513), 10 mM HEPES (Sigma H0887), and a […] of penicillin/streptomycin solution (final concentration 100 units penicillin/100 μG streptomycin per mL) (Sigma # P4458) at a high density, from 12 to 20 million cells, in 10 cm dishes. Cells were dissociated from the culture matrix and were seeded at 35,000 cells per well 24 hours prior to assay in 384 well plates. Media was removed after 18 to 24 hours. A calcium-sensitive fluorescent dye (Fluo-4, Invitrogen) diluted in sweet assay buffer (130 mM NaCl, 1.1mMKH2PO4, 1.3 mM CaCl, 20 mM HEPES and 3mMNaHPO4*7H20) was added then to each well. Cells were incubated in this media for 1 hour. Plates then were loaded on a high throughput plate reader (Hamamatsu FDSS). […] Calcium flux or assay response was detected prior to, during and following addition of sweet assay buffer containing fructose to each well for a final concentration of 15 mM fructose. […]
Alternatively, cells were dissociated from the culture matrix and were seeded at cell densities from 2,500 to 20,000 per well for 24 or 48 hours prior to assay in Eagle's Minimal Essential Media (Sigma #D5650) containing 10% FBS (Sigma #2442), 2 mM L-Glutamine (Sigma #G7513) and 1 mM Sodium Pyruvate (Sigma #S8636) or a mixture of equal parts of this media and L-15 media (Sigma, L5520) in a 384 well plate. […] Plates then were loaded on a high throughput plate reader (Hamamatsu FDSS). […] Calcium flux or assay response was detected prior to, during and following addition of sweet assay buffer containing fructose to each well for a final concentration of 15 mM fructose. […]

Measured: response in calcium flux reporter assay

O=C(CO)[C@@H](O)[C@H](O)[C@H](O)CO [fructose]
responding to fructose: 293T cells, FIG. 28C | H716 cells, FIG. 28B | HuTu cells, FIG. 28A

Reference: patent US20170052170A1, “NOVEL CELL LINES AND METHODS” (priority 2009, published 2017)
